# Measurements reported in PubChem BioAssay AID1963978 (Molecular Pharmacology Branch, DTP, NCI, 2024).
# System: 616215-338-R-J1-PDC spheroids with HUVEC/MSC, viability
# Assay: Anticancer human tumor 616215-338-R-J1-PDC patient-derived colon adenocarcinoma cell line growth inhibition [PI3K]
# Conditions: for viability, T/C: stronger effect = lower value
# Outline: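 Complex 3D spheroids (cancer cells + endothelial HUVEC + mesenchymal stem cells); drug pairs of targeted agent x inavolisib/alpelisib/duvelisib/copanlisib; half-log series from ~Cmax, max 10 microM if Cmax unknown; endpoint viability.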
# [1] = curve of first compound, second compound 0.00316 µM
# [2] = curve of first compound, second compound 0.01 µM
# [3] = curve of first compound, second compound 0.0316 µM
# [4] = curve of first compound, second compound 0.1 µM
# [5] = curve of first compound, second compound 0.316 µM
# [6] = curve of first compound, second compound 1 µM
# [7] = second compound 0.00316 µM, first compound 0.0316 µM
# [8] = second compound 0.00316 µM, first compound 0.1 µM
# [9] = second compound 0.00316 µM, first compound 0.316 µM
# [10] = second compound 0.00316 µM, first compound 1 µM
# [11] = second compound 0.00316 µM, first compound 3.16 µM
# [12] = second compound 0.00316 µM, first compound 10 µM
# [13] = second compound 0.01 µM, first compound 0.0316 µM
# [14] = second compound 0.01 µM, first compound 0.1 µM
# [15] = second compound 0.01 µM, first compound 0.316 µM
# [16] = second compound 0.01 µM, first compound 1 µM
# [17] = second compound 0.01 µM, first compound 3.16 µM
# [18] = second compound 0.01 µM, first compound 10 µM
# [19] = second compound 0.0316 µM, first compound 0.0316 µM
# [20] = second compound 0.0316 µM, first compound 0.1 µM
# [21] = second compound 0.0316 µM, first compound 0.316 µM
# [22] = second compound 0.0316 µM, first compound 1 µM
# [23] = second compound 0.0316 µM, first compound 3.16 µM
# [24] = second compound 0.0316 µM, first compound 10 µM
# [25] = second compound 0.1 µM, first compound 0.0316 µM
# [26] = second compound 0.1 µM, first compound 0.1 µM
# [27] = second compound 0.1 µM, first compound 0.316 µM
# [28] = second compound 0.1 µM, first compound 1 µM
# [29] = second compound 0.1 µM, first compound 3.16 µM
# [30] = second compound 0.1 µM, first compound 10 µM
# [31] = second compound 0.316 µM, first compound 0.0316 µM
# [32] = second compound 0.316 µM, first compound 0.1 µM
# [33] = second compound 0.316 µM, first compound 0.316 µM
# [34] = second compound 0.316 µM, first compound 1 µM
# [35] = second compound 0.316 µM, first compound 3.16 µM
# [36] = second compound 0.316 µM, first compound 10 µM
# [37] = second compound 1 µM, first compound 0.0316 µM
# [38] = second compound 1 µM, first compound 0.1 µM
# [39] = second compound 1 µM, first compound 0.316 µM
# [40] = second compound 1 µM, first compound 1 µM
# [41] = second compound 1 µM, first compound 3.16 µM
# [42] = second compound 1 µM, first compound 10 µM
# 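Further: spheroids exposed to agents for seven days before the viability read.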
compound,measurement,setting,value
CCCS(=O)(=O)Nc1ccc(F)c(C(=O)c2c[nH]c3ncc(-c4ccc(Cl)cc4)cc23)c1F + COc1c(OCCCN2CCOCC2)ccc2c3n(c(=NC(=O)c4cnc(N)nc4)nc12)CCN3,IC50,[1],4830 nM
same,IC50,[2],5110 nM
same,IC50,[3],4930 nM
same,IC50,[4],2860 nM
same,IC50,[5],< 31.6 nM
same,IC50,[6],< 31.6 nM
same,"viability, T/C",[7],91.8%
same,"viability, T/C",[8],96.1%
same,"viability, T/C",[9],99%
same,"viability, T/C",[10],97.9%
same,"viability, T/C",[11],77.9%
same,"viability, T/C",[12],2.29%
same,"viability, T/C",[13],105%
same,"viability, T/C",[14],104%
same,"viability, T/C",[15],98.3%
same,"viability, T/C",[16],94.7%
same,"viability, T/C",[17],84.9%
same,"viability, T/C",[18],3.47%
same,"viability, T/C",[19],105%
same,"viability, T/C",[20],107%
same,"viability, T/C",[21],120%
same,"viability, T/C",[22],106%
same,"viability, T/C",[23],77%
same,"viability, T/C",[24],7.26%
same,"viability, T/C",[25],99%
same,"viability, T/C",[26],92.8%
same,"viability, T/C",[27],87.3%
same,"viability, T/C",[28],93.7%
same,"viability, T/C",[29],45.9%
same,"viability, T/C",[30],9.33%
same,"viability, T/C",[31],53.8%
same,"viability, T/C",[32],35.7%
same,"viability, T/C",[33],38.9%
same,"viability, T/C",[34],38.5%
same,"viability, T/C",[35],27%
same,"viability, T/C",[36],5.18%
same,"viability, T/C",[37],23.3%
same,"viability, T/C",[38],29.3%
same,"viability, T/C",[39],21.3%
same,"viability, T/C",[40],20.1%
same,"viability, T/C",[41],18.7%
same,"viability, T/C",[42],3.73%
Cn1ncc(Cl)c1-c1cc(C(=O)NC(CN)Cc2cccc(F)c2)sc1Cl (stereo not given),"viability, T/C",compound 0.0316 µM,94% [middle of 4 runs]
same,"viability, T/C",compound 0.1 µM,97.8% [middle of 4 runs]
same,"viability, T/C",compound 0.316 µM,96.6% [middle of 4 runs]
same,"viability, T/C",compound 1 µM,97.7% [middle of 4 runs]
same,"viability, T/C",compound 10 µM,35.6% [middle of 4 runs]
same,IC50,curve of compound,6.53 µM [middle of 4 runs]
CC1(C)CCC(Nc2ncc(C(F)(F)F)c(-c3c[nH]c4c(P(C)(C)=O)c(C#N)ccc34)n2)CN1 (stereo not given) + COc1c(OCCCN2CCOCC2)ccc2c3n(c(=NC(=O)c4cnc(N)nc4)nc12)CCN3,IC50,[1],< 31.6 nM
same,IC50,[2],< 31.6 nM
same,IC50,[3],< 31.6 nM
same,IC50,[4],188 nM
same,IC50,[5],< 31.6 nM
same,IC50,[6],< 31.6 nM
same,"viability, T/C",[7],47.5%
same,"viability, T/C",[8],43.1%
same,"viability, T/C",[9],31.6%
same,"viability, T/C",[10],56.8%
same,"viability, T/C",[11],48.9%
same,"viability, T/C",[12],0.29%
same,"viability, T/C",[13],40.2%
same,"viability, T/C",[14],29%
same,"viability, T/C",[15],38.7%
same,"viability, T/C",[16],72.4%
same,"viability, T/C",[17],44.5%
same,"viability, T/C",[18],0.67%
same,"viability, T/C",[19],34.5%
same,"viability, T/C",[20],33.7%
same,"viability, T/C",[21],41.5%
same,"viability, T/C",[22],44.8%
same,"viability, T/C",[23],37.4%
same,"viability, T/C",[24],0.14%
same,"viability, T/C",[25],63.7%
same,"viability, T/C",[26],43.8%
same,"viability, T/C",[27],47.6%
same,"viability, T/C",[28],41.6%
same,"viability, T/C",[29],21.4%
same,"viability, T/C",[30],0.09%
same,"viability, T/C",[31],29.9%
same,"viability, T/C",[32],23.8%
same,"viability, T/C",[33],20.1%
same,"viability, T/C",[34],18.9%
same,"viability, T/C",[35],8.61%
same,"viability, T/C",[36],0.69%
same,"viability, T/C",[37],20%
same,"viability, T/C",[38],19.6%
same,"viability, T/C",[39],14.9%
same,"viability, T/C",[40],16.1%
same,"viability, T/C",[41],8.67%
same,"viability, T/C",[42],0.24%
